Results published in PubChem BioAssay AID588615 (The Scripps Research Institute Molecular Screening Center, 2011).
Activity calls are given as the source filed them.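 Rule for the calls: active = p38 protein level shifted by 30% or more versus DMSO-treated cells, either down or up; inactive = shift in p38 protein level below 30%.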

Key:
[1] = target: Mitogen-activated protein kinase 14 (Homo sapiens) (UniProt Q16539); test: p38 MAPK abundance shift in treated cells – DLD1 cells, chemiluminescent western blot, powder samples, counter-screen for KLF5 inhibitor project, late-stage follow-up (AID 588615); details: DLD-1 cells, p38 western blot, 24 h; at 10 µM; stronger effect = higher value
Sequence of Mitogen-activated protein kinase 14 (Homo sapiens) (Q16539 whole entry, looked up): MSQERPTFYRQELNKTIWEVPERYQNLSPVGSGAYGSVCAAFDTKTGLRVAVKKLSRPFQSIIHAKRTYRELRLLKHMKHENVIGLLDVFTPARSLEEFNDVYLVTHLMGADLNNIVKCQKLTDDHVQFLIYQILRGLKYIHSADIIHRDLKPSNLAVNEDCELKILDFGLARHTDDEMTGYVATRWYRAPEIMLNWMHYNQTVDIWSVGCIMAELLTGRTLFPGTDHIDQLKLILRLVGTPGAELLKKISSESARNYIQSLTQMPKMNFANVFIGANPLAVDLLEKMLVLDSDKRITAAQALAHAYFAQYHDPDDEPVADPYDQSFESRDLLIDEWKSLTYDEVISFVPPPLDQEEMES

[2] = system: DLD-1 cells, p38 western blot, 24 h; test: as above; details: measured here: p38 band fold change vs DMSO; at 10 µM

inhibition [1] | Structure (SMILES) | fold change [2]
19.9% (inactive) | CN(C(=O)COC(=O)/C=C/c1cccc([N+](=O)[O-])c1)C1CCS(=O)(=O)C1 (centres undefined) | 
-5.46% (inactive) | CN(C(=O)CNC(=O)/C=C/c1cccc(Cl)c1)C1CCS(=O)(=O)C1 (centres undefined) | 1.05
12.3% (inactive) | CN(C(=O)CNC(=O)/C=C/c1cccc(Cl)c1)C1CCS(=O)(=O)CC1 | 
